Reference: PubChem BioAssay AID1963431 (Molecular Pharmacology Branch, DTP, NCI, 2024)
Blank lines part the entries; values can stand above or below the molecule they belong to.

Tested on: Rh18 complex spheroid viability, percent test/control
Experiment: Anticancer human tumor Rh18 cell line growth inhibition [Asc];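 further: spheroids exposed to compound for 7 days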;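 on viability, T/C: 100% = DMSO vehicle control wells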
Conditions: for IC50: curve of first compound; for viability, T/C: stronger effect = lower value
How it was run: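 Complex solid-tumor spheroids incorporating human endothelial and mesenchymal stem cells received single agents or combinations over half-log dilution ranges anchored to clinical Cmax.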

IC50 (second compound 0.03 µM): < 9.49 nM
IC50 (second compound 0.0949 µM): < 9.49 nM
IC50 (second compound 0.3 µM): < 9.49 nM
IC50 (second compound 0.949 µM): < 9.49 nM
IC50 (second compound 3 µM): < 9.49 nM
Structure (SMILES): Cc1nc(N2CCC3(CC2)COC(C)C3N)c(CO)nc1Sc1ccnc(N)c1Cl (centres undefined) + CCN1C(C(=O)NC23CCC(C(=O)O)(CC2)CC3)C(c2cccc(Cl)c2F)C2(C(=O)Nc3cc(Cl)ccc32)C12CCCCC2
viability, T/C (second compound 0.03 µM, first compound 0.00949 µM): 27%
viability, T/C (second compound 0.03 µM, first compound 0.03 µM): 25.9%
viability, T/C (second compound 0.03 µM, first compound 0.0949 µM): 21.3%
viability, T/C (second compound 0.03 µM, first compound 0.3 µM): 17.6%
viability, T/C (second compound 0.03 µM, first compound 0.949 µM): 12.5%
viability, T/C (second compound 0.03 µM, first compound 3 µM): 10.6%
viability, T/C (second compound 0.0949 µM, first compound 0.00949 µM): 15.7%
viability, T/C (second compound 0.0949 µM, first compound 0.03 µM): 14.1%
viability, T/C (second compound 0.0949 µM, first compound 0.0949 µM): 12.6%
viability, T/C (second compound 0.0949 µM, first compound 0.3 µM): 10.3%
viability, T/C (second compound 0.0949 µM, first compound 0.949 µM): 10%
viability, T/C (second compound 0.0949 µM, first compound 3 µM): 5.48%
viability, T/C (second compound 0.3 µM, first compound 0.00949 µM): 10.6%
viability, T/C (second compound 0.3 µM, first compound 0.03 µM): 11.8%
viability, T/C (second compound 0.3 µM, first compound 0.0949 µM): 7.08%
viability, T/C (second compound 0.3 µM, first compound 0.3 µM): 6.62%
viability, T/C (second compound 0.3 µM, first compound 0.949 µM): 4.84%
viability, T/C (second compound 0.3 µM, first compound 3 µM): 3.71%
viability, T/C (second compound 0.949 µM, first compound 0.00949 µM): 7.44%
viability, T/C (second compound 0.949 µM, first compound 0.03 µM): 6.92%
viability, T/C (second compound 0.949 µM, first compound 0.0949 µM): 5.92%
viability, T/C (second compound 0.949 µM, first compound 0.3 µM): 4.76%
viability, T/C (second compound 0.949 µM, first compound 0.949 µM): 3.46%
viability, T/C (second compound 0.949 µM, first compound 3 µM): 1.83%
viability, T/C (second compound 3 µM, first compound 0.00949 µM): 5.58%
viability, T/C (second compound 3 µM, first compound 0.03 µM): 7.16%
viability, T/C (second compound 3 µM, first compound 0.0949 µM): 4.62%
viability, T/C (second compound 3 µM, first compound 0.3 µM): 3.55%
viability, T/C (second compound 3 µM, first compound 0.949 µM): 3.01%
viability, T/C (second compound 3 µM, first compound 3 µM): 1.74%

IC50 (second compound 0.00316 µM): 5080 nM
IC50 (second compound 0.01 µM): 4310 nM
IC50 (second compound 0.0316 µM): 3640 nM
IC50 (second compound 0.1 µM): < 31.6 nM
IC50 (second compound 0.316 µM): 1790 nM
IC50 (second compound 1 µM): 3380 nM
Structure (SMILES): C#Cc1c(F)ccc2cc(O)cc(-c3ncc4c(N5CC6CCC(C5)N6)nc(OCC56CCCN5CC(F)C6)nc4c3F)c12 (centres undefined) + CNC(C)C(=O)NC1CN(S(=O)(=O)c2cccc(S(=O)(=O)N3CCC4CCC(C(=O)NC(c5ccccc5)c5ccccc5)N4C(=O)C(NC(=O)C(C)NC)C3)c2)CCC2CCC(C(=O)NC(c3ccccc3)c3ccccc3)N2C1=O
viability, T/C (second compound 0.00316 µM, first compound 0.0316 µM): 67.1%
viability, T/C (second compound 0.00316 µM, first compound 0.1 µM): 60.7%
viability, T/C (second compound 0.00316 µM, first compound 0.316 µM): 64.5%
viability, T/C (second compound 0.00316 µM, first compound 1 µM): 65%
viability, T/C (second compound 0.00316 µM, first compound 3.16 µM): 70.7%
viability, T/C (second compound 0.00316 µM, first compound 10 µM): 27.7%
viability, T/C (second compound 0.01 µM, first compound 0.0316 µM): 57.4%
viability, T/C (second compound 0.01 µM, first compound 0.1 µM): 60.7%
viability, T/C (second compound 0.01 µM, first compound 0.316 µM): 50.2%
viability, T/C (second compound 0.01 µM, first compound 1 µM): 74.8%
viability, T/C (second compound 0.01 µM, first compound 3.16 µM): 63.9%
viability, T/C (second compound 0.01 µM, first compound 10 µM): 18.9%
viability, T/C (second compound 0.0316 µM, first compound 0.0316 µM): 63.2%
viability, T/C (second compound 0.0316 µM, first compound 0.1 µM): 40.7%
viability, T/C (second compound 0.0316 µM, first compound 0.316 µM): 52.2%
viability, T/C (second compound 0.0316 µM, first compound 1 µM): 55.3%
viability, T/C (second compound 0.0316 µM, first compound 3.16 µM): 61.5%
viability, T/C (second compound 0.0316 µM, first compound 10 µM): 17.6%
viability, T/C (second compound 0.1 µM, first compound 0.0316 µM): 40.1%
viability, T/C (second compound 0.1 µM, first compound 0.1 µM): 52.3%
viability, T/C (second compound 0.1 µM, first compound 0.316 µM): 40.3%
viability, T/C (second compound 0.1 µM, first compound 1 µM): 61.9%
viability, T/C (second compound 0.1 µM, first compound 3.16 µM): 50.9%
viability, T/C (second compound 0.1 µM, first compound 10 µM): 14.1%
viability, T/C (second compound 0.316 µM, first compound 0.0316 µM): 74.4%
viability, T/C (second compound 0.316 µM, first compound 0.1 µM): 69%
viability, T/C (second compound 0.316 µM, first compound 0.316 µM): 58.9%
viability, T/C (second compound 0.316 µM, first compound 1 µM): 47.2%
viability, T/C (second compound 0.316 µM, first compound 3.16 µM): 54.4%
viability, T/C (second compound 0.316 µM, first compound 10 µM): 11.8%
viability, T/C (second compound 1 µM, first compound 0.0316 µM): 78.2%
viability, T/C (second compound 1 µM, first compound 0.1 µM): 50.2%
viability, T/C (second compound 1 µM, first compound 0.316 µM): 45%
viability, T/C (second compound 1 µM, first compound 1 µM): 51.6%
viability, T/C (second compound 1 µM, first compound 3.16 µM): 53.3%
viability, T/C (second compound 1 µM, first compound 10 µM): 10.5%

IC50 (second compound 0.00316 µM): 12.3 nM
IC50 (second compound 0.01 µM): 18.8 nM
IC50 (second compound 0.0316 µM): 12.4 nM
IC50 (second compound 0.1 µM): 15.6 nM
IC50 (second compound 0.316 µM): < 9.49 nM
IC50 (second compound 1 µM): 11.5 nM
Structure (SMILES): Cc1nc(N2CCC3(CC2)COC(C)C3N)c(CO)nc1Sc1ccnc(N)c1Cl (centres undefined) + CNC(C)C(=O)NC1CN(S(=O)(=O)c2cccc(S(=O)(=O)N3CCC4CCC(C(=O)NC(c5ccccc5)c5ccccc5)N4C(=O)C(NC(=O)C(C)NC)C3)c2)CCC2CCC(C(=O)NC(c3ccccc3)c3ccccc3)N2C1=O
viability, T/C (second compound 0.00316 µM, first compound 0.00949 µM): 44.4%
viability, T/C (second compound 0.00316 µM, first compound 0.03 µM): 60%
viability, T/C (second compound 0.00316 µM, first compound 0.0949 µM): 34.7%
viability, T/C (second compound 0.00316 µM, first compound 0.3 µM): 33.7%
viability, T/C (second compound 0.00316 µM, first compound 0.949 µM): 23.2%
viability, T/C (second compound 0.00316 µM, first compound 3 µM): 12.9%
viability, T/C (second compound 0.01 µM, first compound 0.00949 µM): 56%
viability, T/C (second compound 0.01 µM, first compound 0.03 µM): 48.8%
viability, T/C (second compound 0.01 µM, first compound 0.0949 µM): 30.7%
viability, T/C (second compound 0.01 µM, first compound 0.3 µM): 25.8%
viability, T/C (second compound 0.01 µM, first compound 0.949 µM): 23.2%
viability, T/C (second compound 0.01 µM, first compound 3 µM): 14.9%
viability, T/C (second compound 0.0316 µM, first compound 0.00949 µM): 51.2%
viability, T/C (second compound 0.0316 µM, first compound 0.03 µM): 45.7%
viability, T/C (second compound 0.0316 µM, first compound 0.0949 µM): 31.2%
viability, T/C (second compound 0.0316 µM, first compound 0.3 µM): 23.3%
viability, T/C (second compound 0.0316 µM, first compound 0.949 µM): 23.4%
viability, T/C (second compound 0.0316 µM, first compound 3 µM): 16.1%
viability, T/C (second compound 0.1 µM, first compound 0.00949 µM): 63%
viability, T/C (second compound 0.1 µM, first compound 0.03 µM): 32.3%
viability, T/C (second compound 0.1 µM, first compound 0.0949 µM): 22.9%
viability, T/C (second compound 0.1 µM, first compound 0.3 µM): 28.2%
viability, T/C (second compound 0.1 µM, first compound 0.949 µM): 21.9%
viability, T/C (second compound 0.1 µM, first compound 3 µM): 13.2%
viability, T/C (second compound 0.316 µM, first compound 0.00949 µM): 45.9%
viability, T/C (second compound 0.316 µM, first compound 0.03 µM): 24.1%
viability, T/C (second compound 0.316 µM, first compound 0.0949 µM): 31.3%
viability, T/C (second compound 0.316 µM, first compound 0.3 µM): 25.5%
viability, T/C (second compound 0.316 µM, first compound 0.949 µM): 18.9%
viability, T/C (second compound 0.316 µM, first compound 3 µM): 13.9%
viability, T/C (second compound 1 µM, first compound 0.00949 µM): 54%
viability, T/C (second compound 1 µM, first compound 0.03 µM): 30%
viability, T/C (second compound 1 µM, first compound 0.0949 µM): 22%
viability, T/C (second compound 1 µM, first compound 0.3 µM): 22.8%
viability, T/C (second compound 1 µM, first compound 0.949 µM): 37.9%
viability, T/C (second compound 1 µM, first compound 3 µM): 16.7%
